Laboratory results published in patent US20140041064A1, “COMPOSITIONS AND METHODS FOR I[…] FACTORS AND ANTI-FUNGAL AGENTS” (WORCESTER POLYTECHNIC INSTITUTE, priority 2011, published 2014).

Experiments:
[1] = tested on: Macrophage cell line RAW 264.7; details: 0.05 μM DPI; RAW 264.7 macrophages co-cultured overnight with wild type, cap1Δ/Δ and CAP1-complemented C. albicans (1:15)
Method: Macrophage cell line RAW 264.7 (ATCC) was used in the assay. The cell line was maintained in DMEM supplemented with 10% fetal bovine serum (FBS). […] Briefly, macrophages on reaching 80-90% confluence were scraped and brought up in DMEM supplemented with 10% FBS and 100 U/ml penicillin and 100 μg/ml streptomycin. 2×10^6 macrophage cells were plated in a 35 mm^2 plate and allowed to adhere for 5 hours. Candida strains were grown overnight at 37° C., diluted 1:10, and allowed to grow for another 5 hours. Candida cells were then washed with supplemented DMEM and were added to the plates containing macrophages in a ratio of 1:15 macrophage and to a final volume of 2 ml. Yeast strain was also grown in parallel without macrophages to calculate % survival. The plates were incubated overnight at 37° C. and 5% CO2. Cells were then brought up to 24 mls in a tube using 0.05% Triton X-100 (v/v) in water to osmotically lyse the macrophage cells. Dilutions were prepared and plated on a YPD plate and grown overnight at 37° C. Colony forming units (CFU) were counted and percentage survival was calculated by taking the ratio of CFU from co culture of Candida and macrophage to the CFU obtained for Candida alone.
Experiments involving diphenyleneiodium chloride (DPI) were performed as mentioned above but with the addition of 0.05 μM DPI from a 31.8 mM stock solution in DMSO. […]

C. albicans = details: hydrogen peroxide at a final concentration of 2 mM; 20° C., 30° C. and 37° C.
Method: In vitro, Cap1 regulates the response to oxidative stress, which is a key component of the innate immune response to fungi (Alarco et al., J. Bacteriol. 181:700-708.3, 1999); Enjalbert et al., Mol. Biol. Cell. 17:1018-1032, 2006; Wang et al., Free Radic. Biol. Med. 40:1201-1209, 2006; Zhang et al., Mol. Microbiol. 36:618-629, 2000) and is induced in the presence of neutrophils (Fradin et al., Mol. Microbiol. 56:397-415, 2005). To correlate these studies performed at 30° C. and 37° C., respectively, with our in vivo infection performed at 20° C., we compared the ROS sensitivity profiles of cap1Δ/Δ, CAP1-complemented and the cognate wild type strain at 20° C., 30° C. and 37° C.

SMILES	CFUs of C. albicans recovered from macrophages [1]	growth of CAP1-complemented strain (C. albicans)	growth of reconstructed cap1Δ mutant (C. albicans)
c1ccc2c(c1)[I+]c1ccccc1-2 [DPI, Diphenyleneiodonium chloride]	no difference in CFUs recovered from macrophages between the three strains	–	–
OO [hydrogen peroxide]	–	same growth as the wild type	failed to grow
